# Laboratory results published in PubChem BioAssay AID1648 (Sanford-Burnham Center for Chemical Genomics, 2009).
# The source made the active and inactive calls. The rule behind the calls is not given here.
# Molecular target: Serine/threonine-protein kinase mTOR (Homo sapiens) (UniProt P42345)
# Experiment: mTOR FRB domain ligand binding – biophysical, NMR (AID 1648)
# Conditions: NMR binding to FRB domain, chemical shift
# Sequence of Serine/threonine-protein kinase mTOR (Homo sapiens) (P42345 2015-2114): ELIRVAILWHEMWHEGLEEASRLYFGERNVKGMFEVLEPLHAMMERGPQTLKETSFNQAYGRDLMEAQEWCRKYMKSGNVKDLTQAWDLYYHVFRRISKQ
row,Compound,Kd
1,COc1ccc(NC(=O)N2CCCCC2)cc1,> 4 mM (inactive)
2,NC(C(=O)O)C(O)c1ccccc1 (stereo not given),> 4 mM (inactive)
3,NC(=O)CSCc1c(Cl)cccc1Cl,> 4 mM (inactive)
4,O=C1NC(=O)C(C(C[N+](=O)[O-])c2ccc(O)cc2)C(=O)N1 (stereo not given),> 4 mM (inactive)
5,COc1ccc(C2(CN)CCOCC2)cc1OC,> 4 mM (inactive)
6,NC(=S)NC(=O)CN1C(=O)c2ccccc2C1=O,> 4 mM (inactive)
7,O=C(/C=C/c1ccccc1)NC1CCS(=O)(=O)C1 (stereo not given),> 4 mM (inactive)
8,Nc1nnc(SCc2ccccc2Cl)s1,> 4 mM (inactive)
9,O=C1CSC(c2ccccc2)N1 (stereo not given),> 4 mM (inactive)
10,Cc1nc(CC(=O)O)c(-c2ccccc2)s1,> 4 mM (inactive)
11,CN1CCCC1C(=O)O (stereo not given),> 4 mM (inactive)
12,O=C1CSC(=O)N1CNc1ccccc1,> 4 mM (inactive)
13,CSc1ccccc1C(=O)N1CCOCC1,> 4 mM (inactive)
14,Cc1ccc2cc(C(=O)O)ccc2n1,> 4 mM (inactive)
15,O=C(O)c1ccc(-c2cnco2)cc1,> 4 mM (inactive)
16,Cc1cc(C)n(-c2nncn2N)n1,> 4 mM (inactive)
17,O=C1NC(=S)N/C1=C\c1cccc([N+](=O)[O-])c1,> 4 mM (inactive)
18,O=C(Nc1ccccc1[N+](=O)[O-])c1ccc(=O)[nH]n1,> 4 mM (inactive)
19,CC(=O)c1cccc(NS(=O)(=O)N2CCCCC2)c1,> 4 mM (inactive)
20,CC(C)(O)P(C)(=O)c1ccccc1 (stereo not given),> 4 mM (inactive)

row,Compound,Kd
1,O=C(c1ccc(F)cc1)N1CCOCC1,> 4 mM (inactive)
2,NC(=O)c1ccc(N2C(=O)CCC2=O)cc1Cl,> 4 mM (inactive)
3,COc1ccc(-c2coc3cc(O)ccc3c2=O)c(OC)c1,> 4 mM (inactive)
4,Cc1ccc(NC(=O)c2ccccc2)s1,> 4 mM (inactive)
5,S=c1[nH]nc(-c2cccnc2)n1C1CCCCC1,> 4 mM (inactive)
6,c1ccc2[nH]c(NCCN3CCOCC3)nc2c1,> 4 mM (inactive)
7,Cc1scc(C(=O)Nn2cnnc2)c1-c1ccccc1,> 4 mM (inactive)
8,Nc1ccc(S(=O)(=O)Nc2nccs2)cc1,> 4 mM (inactive)
9,S=c1[nH]nc(-c2cccnc2)n1Cc1ccccc1,> 4 mM (inactive)
10,Cc1cc(C)c2nncn2n1,> 4 mM (inactive)
11,CCOc1ccc(Cl)cc1S(=O)(=O)N1CCCC1,> 4 mM (inactive)
12,O=c1c(O)cccc2cc(O)c(O)c(O)c12,> 4 mM (inactive)
13,COC(=O)c1ccc(NC(=O)CC2NCCNC2=O)cc1 (stereo not given),> 4 mM (inactive)
14,CC(C)(C)C(=O)Nc1nnc(SCC(N)=O)s1,> 4 mM (inactive)
15,O=C1C2C3C=CC(C3)C2C(=O)N1c1nccs1 (stereo not given),> 4 mM (inactive)
16,C=C[C@H]1CN2CC[C@H]1C[C@H]2[C@H](O)c1ccnc2ccccc12,> 4 mM (inactive)
17,CCOC(=O)C1=C(C)N2CCN=C2S1,> 4 mM (inactive)
18,COC(=O)c1ccccc1N(C)S(C)(=O)=O,> 4 mM (inactive)
19,Cc1ccc(CCNc2ccccc2)c[n+]1[O-],> 4 mM (inactive)
20,c1ccc(NCc2nc(-c3ccccc3)no2)cc1,> 4 mM (inactive)

row,Compound,Kd
1,O=c1cc(-c2ccc(O)cc2)oc2cc(O[C@@H]3O[C@H](CO)[C@@H](O)[C@H](O)[C@H]3O[C@@H]3OC[C@](O)(CO)[C@H]3O)cc(O)c12,> 4 mM (inactive)
2,CC1=NN(c2ccc(C)cc2)C(=O)C1,> 4 mM (inactive)
3,CC(=O)N1CC2(C)CN(C(C)=O)CC(C)(C1)C2O (stereo not given),> 4 mM (inactive)
4,COC(=O)c1cncn1C,> 4 mM (inactive)
5,O=C1CCCN1C(=O)CN1CCOCC1,> 4 mM (inactive)
6,NC(=O)C1CCN(C(=O)Nc2ccccc2)CC1,> 4 mM (inactive)
7,CC1CN(C(=O)c2ccncc2)CC(C)O1 (stereo not given),> 4 mM (inactive)
8,N/C(=N/S(=O)(=O)c1cccs1)c1ccccc1,> 4 mM (inactive)
9,CSc1nc2nccc(N)n2n1,> 4 mM (inactive)
10,O=C(Nc1cccc(Cl)c1)c1cnn2cccnc12,> 4 mM (inactive)
11,c1ccc(-c2nsc(N3CCNCC3)n2)cc1,> 4 mM (inactive)
12,COc1cccc(/C=C2/SC(N)=NC2=O)c1,> 4 mM (inactive)
13,CC12CCCC(O)(C1)C1CC(C)(C)C1CC2 (stereo not given),> 4 mM (inactive)
14,O=S(=O)(c1cccc(Cl)c1)N1CCCC1,> 4 mM (inactive)
15,O=C(Nn1cnnc1)c1csc2c1CCCC2,> 4 mM (inactive)
16,O=C(CSc1nnc2ccccn12)N1CCOCC1,> 4 mM (inactive)
17,Cc1cc(=O)[nH]c(NCC(=O)O)n1,> 4 mM (inactive)
18,CC(C)C(C)/C=C/C(C)[C@H]1CCC2C3=CCC4CC(=O)CC[C@]4(C)C3CC[C@@]21C (stereo not given in full),> 4 mM (inactive)
19,N/N=C/c1cccnc1,> 4 mM (inactive)
20,CC(C)CNc1cc(=O)n(C)c(=O)n1C,> 4 mM (inactive)
